What all share (assay type): in vivo
Assay [1] has as its system Watergrass (Echinochloa). The assay can be described thus: Post-Emergent Test, herbicidal effectiveness. Conditions: post-emergence, 504 h, 33 micrograms per cm^2, 3 weeks, 0-to-100 scale, read-out: Herbicidal Effectiveness, % Control Post, W. In short, it runs like this: (§1)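 Compound in acetone with nonionic surfactant, diluted in water to a 5000 ppm formulation, was sprayed on 24-day-old plants (about 15 to 25 per pot, 2 pots) at 33 micrograms/cm^2. Plants were then kept in a greenhouse with base watering. Rated after 3 weeks on a 0-to-100 scale (0 = no phytotoxicity, 100 = complete kill).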

The subject of assay [2] is Crabgrass (Digitaria sanguinalis). Description: Post-Emergent Test, herbicidal effectiveness. The settings on record: post-emergence, 504 h, 33 micrograms per cm^2, 3 weeks, 0-to-100 scale, read-out: Herbicidal Effectiveness, % Control Post, C. Put shortly: as §1
For assay [3], the system named is Wild Oats (Avena fatua). The assay can be described thus: Post-Emergent Test, herbicidal effectiveness. The settings on record: post-emergence, 504 h, 33 micrograms per cm^2, 3 weeks, 0-to-100 scale, read-out: Herbicidal Effectiveness, % Control Post, O. In short, it runs like this: as §1
In assay [4] the test system is Pigweed (Amaranthus retroflexus). Description: Post-Emergent Test, herbicidal effectiveness. The settings on record: post-emergence, 504 h, 33 micrograms per cm^2, 3 weeks, 0-to-100 scale, read-out: Herbicidal Effectiveness, % Control Post, P. In short, it runs like this:
as §1

The test system of assay [5] is Lambsquarter (Chenopodium album). The assay can be described thus: Post-Emergent Test, herbicidal effectiveness. The settings on record: post-emergence, 504 h, 33 micrograms per cm^2, 3 weeks, 0-to-100 scale, read-out: Herbicidal Effectiveness, % Control Post, L. Put shortly: as §1
Assay [6] concerns Mustard (Brassica arvensis). The assay can be described thus: Post-Emergent Test, herbicidal effectiveness. Conditions: post-emergence, 504 h, 33 micrograms per cm^2, 3 weeks, 0-to-100 scale. Put shortly: as §1
The subject of assay [7] is Watergrass (Echinochloa). The assay can be described thus: Pre-Emergent Test, herbicidal effectiveness. Conditions: pre-emergence, 504 h, 33 micrograms per cm^2, 3 weeks, 0-to-100 scale, read-out: Herbicidal Effectiveness, % Control Pre, W. In short, it runs like this: (§2)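 Compound formulated in acetone with nonionic surfactant, diluted into surfactant-containing water, and sprayed uniformly onto soil of freshly seeded pots at 33 micrograms/cm^2. Pots were watered and kept in a greenhouse, then phytotoxicity was rated visually on a 0–100 scale (0 = none, 100 = complete kill).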

In assay [8] the test system is Crabgrass (Digitaria sanguinalis). Description: Pre-Emergent Test, herbicidal effectiveness. Conditions: pre-emergence, 504 h, 33 micrograms per cm^2, 3 weeks, 0-to-100 scale, read-out: Herbicidal Effectiveness, % Control Pre, C. In short, it runs like this:
as §2

Assay [9] relates to Wild Oats (Avena fatua). The assay can be described thus: Pre-Emergent Test, herbicidal effectiveness. The settings on record: pre-emergence, 504 h, 33 micrograms per cm^2, 3 weeks, 0-to-100 scale, read-out: Herbicidal Effectiveness, % Control Pre, O. Put shortly:
as §2

Assay [10] deals with Pigweed (Amaranthus retroflexus). Description: Pre-Emergent Test, herbicidal effectiveness. Conditions: pre-emergence, 504 h, 33 micrograms per cm^2, 3 weeks, 0-to-100 scale, read-out: Herbicidal Effectiveness, % Control Pre, P. In short, it runs like this:
as §2

For assay [11], the system named is Lambsquarter (Chenopodium album). The assay can be described thus: Pre-Emergent Test, herbicidal effectiveness. The settings on record: pre-emergence, 504 h, 33 micrograms per cm^2, 3 weeks, 0-to-100 scale, read-out: Herbicidal Effectiveness, % Control Pre, L. Put shortly:
as §2

Assay [12] relates to Mustard (Brassica arvensis). The assay can be described thus: Pre-Emergent Test, herbicidal effectiveness. The settings on record: pre-emergence, 504 h, 33 micrograms per cm^2, 3 weeks, 0-to-100 scale. Put shortly: as §2

On to `CCc1cccc(C)c1NCc1nnc(S)n1C` [Compound 19], for which the pest or weed control at 5000 µg/mL, 33 µg/cm2 in [1], in assay [2], in assay [3], in assay [4], in [5] and in [6] was 0% each time. Besides, the pest or weed control at 33 µg/cm2 in assay [7], in [8], in assay [9], in [10], in assay [11] and in [12] was 0% in each case.

As to `CCc1cccc(CC)c1NCc1nnc[nH]1` [Compound 20A], the pest or weed control at 5000 µg/mL, 33 µg/cm2 in [1], in assay [2], in assay [3], in assay [4], in [5] and in [6] was 0% in each case. For the same molecule, the pest or weed control at 33 µg/cm2 in assay [7], in assay [8], in assay [9], in [10], in [11] and in assay [12] was 0% in each case.

On to `CCc1cccc(CC)c1N(Cc1nnc[nH]1)C(=O)CCl` [Compound 20B], for which the pest or weed control at 5000 µg/mL, 33 µg/cm2 came out at 55% in assay [1]; 30% in assay [2]; 0% in assay [3]; 35% in assay [4]; 25% in assay [5]; 30% in [6]. The pest or weed control at 33 µg/cm2 in assay [7] was determined as 100%; in [8], 95%; in assay [9] it was 97%; in assay [10], 100%; in assay [11] it was 97%; in assay [12] it was 95%.

Take `CCc1cccc(C)c1NCc1nnc(SC)n1C` [Compound 21A]: the pest or weed control at 5000 µg/mL, 33 µg/cm2 in assay [1], in assay [2], in assay [3], in assay [4], in assay [5] and in assay [6] was 0% throughout. Besides, the pest or weed control at 33 µg/cm2 in assay [7], in assay [8], in assay [9], in [10], in [11] and in assay [12] was 0% throughout.

Regarding `CCc1cccc(C)c1N(Cc1nnc(SC)n1C)C(=O)CCl` [Compound 21B], the pest or weed control at 5000 µg/mL, 33 µg/cm2 in [1], in assay [2], in assay [3], in assay [4], in [5] and in [6] was 0% throughout. Also, the pest or weed control at 33 µg/cm2 in [7] amounted to 98%; in assay [8], 0%; in assay [9], 0%; in assay [10], 0%; in [11] it was 0%; in [12] it was 0%.

For `Cc1nnc(CNc2c(C)cccc2Cl)[nH]1` [Compound 22A], the pest or weed control at 5000 µg/mL, 33 µg/cm2 in assay [1], in assay [2], in assay [3], in [4], in assay [5] and in assay [6] was 0% in each case. Also, the pest or weed control at 33 µg/cm2 in assay [7], in assay [8], in [9], in assay [10], in assay [11] and in assay [12] was 0% in each case.

On to `Cc1nnc(CN(C(=O)CCl)c2c(C)cccc2Cl)[nH]1` [Compound 22B], for which the pest or weed control at 5000 µg/mL, 33 µg/cm2 in [1] is 60%; in assay [2], 0%; in [3], 0%; in [4], 75%; in [5] it was 20%; in [6] it was 25%. In addition, the pest or weed control at 33 µg/cm2 in assay [7] worked out at 100%; in [8] it was 100%; in assay [9] it was 95%; in [10], 93%; in assay [11], 85%; in [12] it was 80%.

`CCc1cccc(CC)c1NCc1nnc(SC)n1C` [Compound 23A]: the pest or weed control at 5000 µg/mL, 33 µg/cm2 in assay [1], in assay [2], in assay [3], in [4], in assay [5] and in assay [6] was 0% throughout. Also, the pest or weed control at 33 µg/cm2 in assay [7], in assay [8], in assay [9], in [10], in assay [11] and in [12] was 0% each time.

As to `CCc1cccc(CC)c1N(Cc1nnc(SC)n1C)C(=O)CCl` [Compound 23B], the pest or weed control at 5000 µg/mL, 33 µg/cm2 in [1], in assay [2], in assay [3], in [4], in assay [5] and in assay [6] was 0% each time. The pest or weed control at 33 µg/cm2 in [7], in [8], in assay [9], in [10], in assay [11] and in assay [12] was 0% throughout.

Take `CSc1nnc(CNc2c(C)cccc2C)o1` [Compound 24A, 2-(2,6-dimethylphenylaminomethyl)-5-methylthio-1,3,4-oxadiazole]: the pest or weed control at 5000 µg/mL, 33 µg/cm2 in [1], in assay [2], in assay [3], in assay [4], in assay [5] and in assay [6] was 0% throughout. In addition, the pest or weed control at 33 µg/cm2 in [7], in assay [8], in [9], in assay [10], in assay [11] and in [12] was 0% each time.

These data come from patent US4243408A, “Herbicidal N-triazolylmethyl-substituted alpha-haloacetanilide” (Chevron Research Company, priority 1978, dated 1981).
